For test [1], the system named is iPSC-fRPE cells. The experiment in a line: RPE pigmentation screen (light absorbance at 510 nm). The class given is cell-based, human. As to conditions: test compound 5 μM in 0.1% DMSO, 32 days, relative to plate internal DMSO controls (control = 1); for fold induction at 5 µM: Homo sapiens, 768 h. As for the experimental part: (§1) Induced pluripotent stem cell-derived fetal RPE (iPSC-fRPE) cells acquired from the University of California, Santa Barbara, were generated from human fetal RPE cells that were isolated and reprogramed to iPSC, then differentiated and sorted for cellular markers to collect RPE progenitors. Vials were transported frozen on dry ice and stored in −80° C.
(§2) For the phenotypic screens, iPSC-fRPE cells were thawed and cultured in Matrigel-coated flasks with N1VA media containing 1XMEM solution supplemented with 2.2 g/L Sodium Bicarbonate, 0.25 mg/ml Taurine, 0.02 ug/ml Hydrocortisone, 0.013 ug/ml Triiodo Thyronine, 0.1 ug/ml Lipoic acid, 1% MEM Non-Essential Amino Acids, 1% Penicilin/Streptomycin, 2% Neurocult SM1 supplement and 1% N1 supplement. For the initial cultures, Thiazovivin was added to the media at 2 μM for the first 24 hr of incubation, after which the media was replaced with fresh N1VA media for additional three-day incubation at 37° C. with 5% CO2.
(§3) iPSC-fRPE cells were plated with N1VA media at a density of 10,000 cells per well in Matrigel-coated 96-well plates and cultured for 24 h prior to the treatment with test compounds at a final concentration of 5 μM in 0.1% DMSO. Internal controls for each test plate were (a) 0.1% DMSO as a negative control and (b) 0.1% DMSO+10 ng/ml human recombinant bFGF (STEMCELL) as a positive control.
To identify compounds that promote RPE pigmentation, cells were maintained for a period of 32 days and treated with medium containing the test or control compounds according to the media exchange regimen (FIG. 1). The degree of pigmentation was quantified by measuring the light absorbance at 510 nm with Cytation5 imaging reader (BIOTEK). Pigmentation values are finally reported relative to plate internal DMSO controls.

The subject of test [2] is iPSC-fRPE cells. The experiment in a line: RPE cell proliferation (Hoechst 33342 live cell number). The format is cell-based, human. As to conditions: test compound 5 μM in 0.1% DMSO, fixed at Day 5, Hoechst 33342 cell number, relative to plate internal DMSO controls (control = 1); for fold induction at 5 µM: Homo sapiens, RPE, 120 h, read-out: Relative Growth. As for the experimental part:
as §1, §2, §3
To assess proliferation of RPE cells, a replicate of compound-treated RPE cells were fixed at Day 5 and stained with Hoechst 33342 to determine live cell number with fluorescent microscopy. Cell numbers are reported relative to plate internal DMSO controls.

On to `c1ccc2c(c1)CC(c1nc3ccc(-c4cnco4)cc3[nH]1)C2` [Compound 7, 2-(2,3-dihydro-1H-inden-2-yl)-6-(1,3-oxazolyl)-1H-1,3-benzodiazole], for which the values for the fold induction at 5 µM with iPSC-fRPE cells [1] and in the test with iPSC-fRPE cells [2] were 2.36 and 1.34, respectively.
For the compound `c1ccc2c(c1)C[C@H](c1nc3ccc(-c4cnco4)cc3[nH]1)CO2` [Compound 1, (R)-5-(2-(chroman-3-yl)-1H-benzo[d]imidazol-6-yl)oxazole], the fold induction at 5 µM in the test on iPSC-fRPE cells [1] turned out to be 4.98; with iPSC-fRPE cells [2], 1.7.
Regarding `Clc1ccc2c(c1)CC(c1nc3ccc(-c4cnco4)cc3[nH]1)CO2` (racemic) [Compound 5, 2-(6-chloro-3,4-dihydro-2H-1-benzopyran-3-yl)-6-(1,3-oxazol-5-yl)-1H-1,3-benzodiazole], the fold induction at 5 µM in the test with iPSC-fRPE cells [1] was found to be 1.04; in the test with iPSC-fRPE cells [2], 1.52.
In the case of `c1ccc2c(c1)CC(c1nc3ccc(-c4cnco4)cc3[nH]1)O2` (racemic) [Compound 3, 2-(2,3-dihydro-1-benzofuran-2-yl)-6-(1,3-oxazol-5-yl)-1H-1,3-benzodiazole], the fold induction at 5 µM in the test with iPSC-fRPE cells [1] was 2.77; in the test on iPSC-fRPE cells [2] it was 1.36.
In the case of `Fc1ccc2c(c1)OCC(c1nc3ccc(-c4cnco4)cc3[nH]1)C2` (racemic) [Compound 4, 2-(7-fluoro-3,4-dihydro-2H-1-benzopyran-3-yl)-6-(1,3-oxazol-5-yl)-1H-1,3-benzodiazole], the fold induction at 5 µM in the test on iPSC-fRPE cells [1] came out at 5.08; with iPSC-fRPE cells [2], 1.78.
Taken in the same sequence, the figures for `Fc1cc(-c2cnco2)cc2[nH]c(C3COc4ccccc4C3)nc12` (racemic) [Compound 8, 2-(3,4-dihydro-2H-1-benzopyran-3-yl)-7-fluoro-5-(1,3-oxazool-5-yl)-1H-1,3-benzodiazole] were 2.75 and 1.49.
In the case of “2-(chroman-3-yl)-6-(oxazol-5-yl)benzo[d]oxazole [Compound 11]”, the “Relative Pigmentation” value in the test on iPSC-fRPE cells [1] worked out at 6.24. Besides, in the test with iPSC-fRPE cells [2], the “Relative Growth” value stood at 1.42.
Taken in the same sequence, the figures for “2-(chroman-3-yl)-6-(oxazol-5-yl)benzo[d]oxazole [Compound 10]” were 1.71 and 1.12.
Regarding `c1ccc2c(c1)C[C@@H](c1nc3ccc(-c4cnco4)cc3[nH]1)CO2` [Compound 2, (S)-5-(2-(chroman-3-yl)-1H-benzo[d]imidazol-6-yl)oxazole], the fold induction at 5 µM came out at 1.59 in the test on iPSC-fRPE cells [1] and 1.25 with iPSC-fRPE cells [2].
Taken in the same sequence, the figures for `Fc1c(-c2cnco2)ccc2nc(C3COc4ccccc4C3)[nH]c12` (racemic) [Compound 9, 2-(3,4-dihydro-2H-1-benzopyran-3-yl)-4-fluoro-5-(1,3-oxazol-5-yl)-1H-1,3-benzodiazole] were 4.27 and 1.13.
In the same order, the values of `Fc1cc(F)c2c(c1)CC(c1nc3ccc(-c4cnco4)cc3[nH]1)CO2` (racemic) [Compound 6, 2-(6,8-difluoro-3,4-dihydro-2H-1-benzopyran-3-yl)-6-(1,3-oxazol-5-yl)-1H-1,3-benzodiazole] are 2.3 and 1.42.

Source of the values: patent US11844755B2, “Compounds and their use as therapeutically active substances in the treatment and/or reducing signs or symptoms of diseases involving the retinal pigment epithelium” (ENDOGENA THERAPEUTICS, INC., priority 2020, dated 2023).
